Source: patent US10690673B2, “Method of treating cancer metastasis by CDK 4/6 inhibitors” (Mayo Foundation for Medical Education and Research, priority 2016, dated 2020)
Where a SMILES comes first, the peptide text is derived from it. The star is where a group is joined. Cbz = O=C(OCc1ccccc1)*

Legend:
SNAIL1 polypeptide = SNAIL1 polypeptide level by Western blotting in breast cancer cells; format: cell-based, human; conditions: for SNAIL1 polypeptide level: 0, 3, 6, or 9 μM for 18 hours
Procedure: FIG. 3. DUB3 deubiquitinates and stabilizes SNAIL1. (A) Cell extracts were prepared from 4 luminal and 4 basal like subtypes of human breast cancer cell lines, and expression of SNAIL1, DUB3, E-cadherin and vimentin was analyzed by Western blotting. (B) MDA-MB-231 cells stably expressing control or DUB3 shRNAs were generated and Western blot was performed with the indicated antibodies. (C) Total RNA was isolated from cells in (B). mRNAs encoding SNAIL and β-actin were determined by reverse transcription-polymerase chain reaction (RT-PCR) and agarose gel electrophoresis. (D) MDA-MB-231 cells stably expressing control or DUB3 shRNAs were treated with vehicle or MG-132 (10 μM) for 1 hour and Western blot was performed with the indicated antibodies. (E-F) T47D and MCF-7 cells were infected with virus containing vector (“V”), FLAG-DUB3 (“WT”) and the C89S (“CS”) mutant, and Western blots were performed. (F) CHX pulse-chase assay was performed in cells. (G) Cells were cotransfected with indicated plasmids and treated with MG132 for 6 hours before cell lysates were boiled and immunoprecipitated with HA beads, and the polyubiquitylated SNAIL1 polypeptide was detected by an anti-ubiquitin antibody. (H) Cells were transfected with HA-SNAIL1 and treated with MG132 for 6 hours. Cell lysates were boiled and immunoprecipitated with HA beads and incubated with GST, GST-DUB3 or GST-DUB3 C89S mutant. The polyubiquitylated SNAIL1 polypeptide was detected by an anti-ubiquitin antibody.
FIG. 10. Ser41 phosphorylation regulates DUB3 activity. (A) Cells transfected with indicated constructs were lysed and co-immunoprecipitations experiments were performed using anti-FLAG antibody. The immunoprecipates were eluted by FLAG-peptide containing buffer and the activities of DUB3 were assayed using Ubiquitin-AMC (Ub-AMC) as a substrate. (B) The eluates were detected with anti-FLAG antibody. (C) MDA-MB-231 cells were treated with either vehicle or […] for indicated periods. Western blotting was performed with indicated antibodies.
FIG. 11. Phosphorylation of Ser41 regulates DUB3 activity. (A) Cells were cotransfected with indicated plasmids and treated with vehicle or CDK 4/6 inhibitor (PD0332991 10 μM). Cell lysates were boiled and immunoprecipitated with HA beads and immunoblotted as indicated. […] (G) The migratory abilities of cells were analyzed by a wound healing assay. […] After 12 weeks, mice were sacrificed and the development of lung metastases was determined by counting and quantifying lung metastatic nodules.
FIG. 14. […] (B) MDA-MB-231 cells were treated with vehicle or LY2835219 and the migration ability of cells was measured by a wound healing assay. […] (D) HCC1806 cells were treated with vehicle or LY2835219 and the migration ability of cells was measured by a wound healing assay. […]

[1] = test system: human breast tumor biopsy sample HCI001; assay: Patient-derived xenograft (PDX) model of triple negative breast cancer, tumor growth and metastasis; format: in vivo, mice; conditions: 100 mg/kg daily, PO, five weeks; saline group 6/8; significantly decreased
Procedure: FIG. 13. CDK 4/6 inhibition inhibits cancer metastasis. (A) DUB3 and SNAIL1 polypeptide levels in a subset of human breast tumor biopsy samples were examined. (B) Passage 3 tumors from HCI001 were used to test the effect of PD0332991 on metastasis. When primary tumors reached 100-150 mm^3, mice were randomized and treated either with saline or PD0332991 for five weeks (n=8). Tumor weights were measured after mice were sacrificed (B). Tumor volumes were measured every week (C). After mice were sacrificed, liver (D-F) and lung (G-I) metastatic nodules were examined macroscopically or detected in paraffin-embedded sections stained with H&E. (J) The working model to illustrate that CDK 4/6 phosphorylation-dependent activation of DUB3 regulates EMT and metastasis through SNAIL1.
The results provided herein indicate that DUB3 stabilizes SNAIL1 polypeptide through deubiquitinating SNAIL1 and CDK 4/6 activity is involved in SNAIL1 stabilization. […] DUB3 and SNAIL1 levels were detected and correlated in a subset of human breast cancer samples from the BEAUTY project (FIG. 13A). […]
A patient-derived xenograft model was generated from an estrogen receptor-negative, progesterone receptor-negative, human epidermal growth factor receptor 2-negative (ER^−PR^−_HER2^−) high-grade invasive ductal carcinoma. […] Tumor volumes were measured once per week. […] Data were analyzed using Student's t test. […]

[2] = test system: phosphorylation of DUB3 at Ser41; assay: Phosphorylation of DUB3 at Ser41 in transfected cells (anti-FLAG immunoprecipitation, Western blotting); format: cell-based; conditions: cells transfected with FLAG-DUB3 WT
Procedure: FIG. 8. CDK 4/6 phosphorylates DUB3 at Ser 41. (A) DUB3 phosphorylation sites were analyzed by mass spectrometry. If the Ascore values for Ascore Seq_A are above 19, then the location is considered confidently assigned (indicated with pink cell backgrounds). (B) Cells were transfected with indicated plasmids and cell lysates were subjected to immunoprecipitation with an anti-FLAG antibody and Western blotting was performed. (C) Cells were transfected with indicated plasmids and were treated with vehicle, or pan-CDK inhibitor (Roscovitine 5 μM) or CDK 4/6 inhibitor (PD0332991 10 μM). The phosphorylation of Ser41 was examined. (D) CDK 4/6 phosphorylates DUB3 in vitro. Bacterially expressed GST and GST-DUB3 fusion polypeptides were incubated with active CDK4 or CDK6 in the presence of [γ-32P]ATP. Polypeptides were resolved by SDS-PAGE, and phosphorylated polypeptides were visualized with autoradiography. (E) Vector or FLAG-DUB3 were transfected in cells stably expressing indicated shRNA. The phosphorylation of Ser41 in DUB3 was then examined.
FIG. 15. CDK1 phosphorylates DUB3 at Ser41 in vitro, and the treatment of pan-CDK inhibitor Roscovitine decreased phosphorylation of DUB3. (A) Bacterially-expressed GST-DUB3 WT and GST-DUB3 S41A fusion polypeptides were incubated with active CDK4, CDK6, CDK1, or CDK2 in the presence of [γ-^32P]ATP. […]

## Nc1nc(N)c(N=O)c(OCC2CCCCC2)n1 [DU6027]
SNAIL1 polypeptide; BT549 cells, FIG. 16
  SNAIL1 polypeptide level: decreases
SNAIL1 polypeptide; MDA-MB-231 cells, FIG. 17
  SNAIL1 polypeptide level: decreases

## CC(=O)c1c(C)c2cnc(Nc3ccc(N4CCNCC4)cn3)nc2n(C2CCCC2)c1=O [PD0332991, Palbociclib]
[1]
  liver metastasis (mice with metastasis / mice in group): 1/8
  lung metastasis (mice with metastasis / mice in group): 2/8

## CC[C@H](CO)Nc1nc(NCc2ccccc2)c2ncn(C(C)C)c2n1 [Roscovitine]
[2]; Example 11, FIG. 15B, concentration not given
  phosphorylation of DUB3 at Ser41: dramatically reduced
[2]; Roscovitine 5 μM, FIG. 8C
  phosphorylation of DUB3 at Ser41: dramatically reduced

## CC(C)C[C@@H](C=O)NC(=O)[C@H](CC(C)C)NC(=O)[C@H](CC(C)C)NC(=O)OCc1ccccc1 [MG-132] (Cbz-Leu-Leu-Leu-aldehyde)
SNAIL1 polypeptide; MDA-MB-231 cells stably expressing DUB3 shRNAs, MG-132 10 μM for 1 hour, FIG. 3D
  effect on decreased SNAIL1 polypeptide level in cells depleting DUB3: rescue
SNAIL1 polypeptide; MDA-MB-231 cells, PD0332991 in the presence of MG-132, FIG. 11D
  effect on PD0332991-induced reduction of SNAIL1 polypeptide level: reversed
